In patent publication US20190091189A1, “ADMINISTRATION OF EXOGENOUS KETONE TO LOWER BLOOD GLUCOSE” (priority 2016, published 2019):

How the values were obtained:
[1] = Multiple treatment (7 days) and rotarod exercise, blood βHB and glucose; assay type: in vivo, Sprague-Dawley rats; details: exercised SPD rats
From the text: Four month old Sprague-Dawley rats were first acclimated to oral gavage with administration of tap water once daily for a period of 5 days. The rats were then divided into 5 groups, and fed either a standard diet (SD), a ketogenic diet (KD), or a standard diet supplemented with a once daily oral gavage of a ketogenic compound as outlined in Table 1. The ketogenic compound was selected from 1,3-butanediol-acetoacetate diester (SD+KE), β-hydroxybutyrate mineral salt (SD+KS), or β-hydroxybutyrate mineral salt and a medium chain triglyceride (SD+KSMCT). The above ketogenic compounds were provided at a dose of 5 g/kg of body weight.
Each group of animals was maintained on the respective dietary conditions for 7 days. Whole blood samples (10 μL) were collected from the saphenous vein of rats. The levels of blood glucose (mg/dL) and β-hydroxybutyrate (mmol/L) were measured with the commercially available glucose monitoring system PRECISION XTRA® (Abbott Laboratories, Abbott Park, Ill., USA). It is noted that the PRECISION XTRA® only measures β-hydroxybutyrate levels, therefore total blood ketone levels may be higher than measured.
Rats were exercised on a Rota Rod Rotamex 5 (Columbus Instruments). Animals were exercised on the rotarod for 5 consecutive days before treatment began in order to acclimate to the equipment and the task. The rats were placed on rods of the accelerating rotarod and the time the animals remained on the rotarod was measured. The rotarod was set to accelerate to 40 rpm in 180 seconds. Each training and testing consisted of 3 trials, with a 2 minute rest period between each trial. Animals were placed on the rotarod and timed until they fell from the rotating rod. The animals were evaluated on the rotarod exercise test after the 5 days training period but prior to the beginning of dietary treatment (baseline), 24 hours after treatment, and after 7 days of dietary treatment.
The animals were evaluated for blood levels of glucose and ketone bodies β-hydroxybutyrate), prior to the beginning of dietary treatment, 24 hours after treatment, and after 7 days of dietary treatment.

[2] = Sub-chronic oral gavage (7 days), blood βHB and glucose, without exercise; assay type: in vivo, Sprague-Dawley rats; details: SPD rats, 5 g/kg b.w./day gavage
From the text: (§1) In order to familiarize the animals to the intragastric gavage method, water was gavaged for 5 days before ketone supplementation. Following the adaptation period to the intragastric gavage method, 39 male SPD rats were fed with standard diet, and gavaged daily with 5 g/kg b.w./day water (SD/control; n=11) or ketone supplements KE (n=9), KS (n=9), KSMCT (n=10) sub-chronically for 7 days. In addition, following the adaptation period to the intragastric gavage method, WAG/Rij male rats (n=32) were fed with SD and gavaged sub-chronically with about 2.5 g/kg b.w./day water (SD/control; n=8), KE (n=8), KS (n=8) or KSMCT (n=8) for 7 days.
(§2) In the chronic feeding study, blood βHB and glucose levels were measured 24 h before the 1st day of ketone treatments (baseline levels) and at 13th week. In the 7 day oral gavage studies, blood βHB and glucose levels were measured 24 h before the 1st day of ketone treatments (baseline levels; SPD and WAG/Rij rats), 24 h after the first gavage and 60 min after gavage on the 7th day (SPD and WAG/Rij rats). Whole blood samples (10 μL) were taken from the saphenous vein for analysis of blood glucose (mg/dl) and βHB (mmol/1) levels with the commercially available glucose and ketone (βHB) monitoring system Precision Xtra™ (Abbott Laboratories, Abbott Park, Ill., USA).

[3] = 10-week feeding of G1D mice, blood ketone and glucose; assay type: in vivo; details: fed for 10 weeks, 10% KE or 20% KS in standard diet, or ketogenic diet
Description: GLUT1 deficiency syndrome (G1D) is characterized by impaired glucose transport in the brain and diagnosed with CSF glucose value of <2.2 mmol/L. There is no cure for G1D, but the ketogenic diet (KD) is often effective for the drug-resistant seizures and impairment of motor function associated with the disease. The effect of ketogenic compounds on blood glucose levels was assessed in glucose transporter type 1 (G1D)-deficient mice. A group of 48 G1D mice, aged 2-5 months old, were fed for 10 weeks with either a standard rodent diet (SD), a ketogenic diet (KD), a standard diet supplemented with 10% ketone ester (SD+KE) or a standard diet supplemented with 20% ketone mineral salt (SD+KS).

[4] = Sub-chronic oral gavage (7 days), blood βHB and glucose, without exercise; assay type: in vivo; details: WAG/Rij rats; for blood βHB: about 2.5 g/kg b.w./day, after 7 days of gavage, compared to baseline, 24 h and control
From the text: as §1, §2

[5] = Chronic feeding (83 days) of ketone supplements, blood βHB and glucose; assay type: in vivo, Sprague-Dawley rats; details: SPD rats, after 83 days of chronic feeding (~25 g/kg b.w./day), compared to control
From the text: A total of 48 male SPD rats were fed for 83 days with either standard rodent chow (2018 Teklad Global 18% Protein Rodent Diet (#2018), Harlan) standard diet (SD)/control; n=9) or SD+ketone supplementation. Four treatment animal groups included low-dose KE (˜10 g/kg b.w./day, Low-dose ketone ester (LKE); n=10), high-dose KE (˜25 g/kg b.w./day, high dose ketone ester (HKE); n=10), KS (˜25 g/kg b.w./day, KS; n=9) and KSMCT (˜25 g/kg b.w./day, KSMCT; n=10).
as §2

[6] = 5 g/kg once daily gavage (or ketogenic diet), 24 hours after treatment
[7] = 5 g/kg once daily gavage (or ketogenic diet), after 24 hours, compared to baseline
[8] = 5 g/kg once daily gavage (or ketogenic diet), after 7 days
[9] = 5 g/kg once daily gavage, after 7 days

In the case of `CC(=O)CC(=O)OCCC(C)OC(=O)CC(C)=O` (centres unmarked) [KE, 1,3-butanediol-acetoacetate diester], the “blood βHB after exercise” value [1, 6] is reported as “elevated levels”, the “blood glucose levels after exercise” value [1, 7] is reported as “reduce blood glucose levels” and the “blood βHB after exercise” value [1, 8] is reported as “trend towards baseline levels”. For the same compound, the “blood glucose levels after exercise” value [1, 9] was “trended towards baseline”, the “blood βHB levels” value ([2]; 24 h after a single gavage, compared to control) was “elevated” and the blood glucose levels ([2]; at 24 h, compared to control) was “lower”. For the same compound, the blood glucose level [3] was “quickly dropped and remained the lowest”, the blood ketone level [3] was “slow and slight elevation” and the glucose levels ([4]; about 2.5 g/kg b.w./day gavage, after 24 h, compared to baseline and control group) was “lower”. The “blood βHB” value [4] was “elevated” and the “blood βHB levels” value [5] was “significantly elevated”.
For “Na^+/K^+-β-hydroxybutyrate mineral salt [KS]”, the “blood βHB after exercise” value [1, 6] was “no change”, the “blood glucose levels after exercise” value [1, 7] was “increase” and the “blood βHB after exercise” value [1, 8] was “significant increase”. For the same compound, the “blood glucose levels after exercise” value [1, 9] was “decline towards baseline”, the “blood βHB” value ([2]; 7 days, compared to control group) was “elevated” and the blood glucose level [3] was “early decrease”. For the same compound, the blood ketone level [3] was “significant and rapid elevation”, the “blood βHB” value [4] was “elevated” and the “blood βHB levels” value [5] was “significantly elevated”.
